# In the kinase profiling compilation of Christmann-Franck et al. (2016):
# What was measured:
# Experiment in all cases: radiometric filter-binding kinase assay, Kinase HotSpot
# Conditions in all cases: compound 0.5 µM; ATP 10 µM
# PRKCB1 (human) = PRKCB1 (human) (UniProt P05771)
# MAPK12 (human) = MAPK12 (human) (UniProt P53778)
# TXK (human) = TXK (human) (UniProt P42681)
# CSNK1G3 (human) = CSNK1G3 (human) (UniProt Q9Y6M4)
# FGFR1 (human) = FGFR1 (human) (UniProt P11362)
# NUAK1 (human) = NUAK1 (human) (UniProt O60285)
# FES (human) = FES (human) (UniProt P07332)
# EPHB4 (human) = EPHB4 (human) (UniProt P54760)
# AKT2 (human) = AKT2 (human) (UniProt P31751)
# AURKA (human) = AURKA (human) (UniProt O14965)
# STK16 (human) = STK16 (human) (UniProt O75716)
# DAPK2 (human) = DAPK2 (human) (UniProt Q9UIK4)
# NEK6 (human) = NEK6 (human) (UniProt Q9HC98)
# NTRK3 (human) = NTRK3 (human) (UniProt Q16288)
# PRKCZ (human) = PRKCZ (human) (UniProt Q05513)
# AURKB (human) = AURKB (human) (UniProt Q96GD4)
# MARK2 (human) = MARK2 (human) (UniProt Q7KZI7)
# NEK3 (human) = NEK3 (human) (UniProt P51956)
# CAMKK1 (human) = CAMKK1 (human) (UniProt Q8N5S9)
# TTK (human) = TTK (human) (UniProt P33981)
# MAP4K4 (human) = MAP4K4 (human) (UniProt O95819)
# PIM2 (human) = PIM2 (human) (UniProt Q9P1W9)
# AXL (human) = AXL (human) (UniProt P30530)
# AKT1 (human) = AKT1 (human) (UniProt P31749)
# TAOK1 (human) = TAOK1 (human) (UniProt Q7L7X3)
# DMPK (human) = DMPK (human) (UniProt Q09013)
# STK4 (human) = STK4 (human) (UniProt Q13043)
# PTK6 (human) = PTK6 (human) (UniProt Q13882)
# INSR (human) = INSR (human) (UniProt P06213)
# MAPKAPK5 (human) = MAPKAPK5 (human) (UniProt Q8IW41)
# MAPKAPK2 (human) = MAPKAPK2 (human) (UniProt P49137)
# DYRK1B (human) = DYRK1B (human) (UniProt Q9Y463)
# STK3 (human) = STK3 (human) (UniProt Q13188)
# FGR (human) = FGR (human) (UniProt P09769)
# MAP3K3 (human) = MAP3K3 (human) (UniProt Q99759)
# CAMK1G (human) = CAMK1G (human) (UniProt Q96NX5)
# CSNK1G2 (human) = CSNK1G2 (human) (UniProt P78368)
# LCK (human) = LCK (human) (UniProt P06239)
# CDK7 CCNH MNAT1 (human) = CDK7 CCNH MNAT1 (human) (UniProt P50613+P51948+P51946)
# EPHA3 (human) = EPHA3 (human) (UniProt P29320)
# IRAK4 (human) = IRAK4 (human) (UniProt Q9NWZ3)
# DYRK2 (human) = DYRK2 (human) (UniProt Q92630)
# Sequence of DAPK2 (human) (Q9UIK4 whole entry, looked up): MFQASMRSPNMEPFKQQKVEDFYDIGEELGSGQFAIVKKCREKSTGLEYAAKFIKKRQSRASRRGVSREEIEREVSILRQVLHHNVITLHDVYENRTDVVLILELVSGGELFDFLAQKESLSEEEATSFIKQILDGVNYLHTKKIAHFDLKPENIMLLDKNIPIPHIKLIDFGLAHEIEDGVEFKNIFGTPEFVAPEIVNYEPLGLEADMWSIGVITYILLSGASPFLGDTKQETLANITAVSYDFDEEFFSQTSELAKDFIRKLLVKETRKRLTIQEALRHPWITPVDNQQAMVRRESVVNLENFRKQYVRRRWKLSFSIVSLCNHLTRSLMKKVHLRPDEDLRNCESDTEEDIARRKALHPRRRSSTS
# Sequence of AXL (human) (P30530 whole entry, looked up): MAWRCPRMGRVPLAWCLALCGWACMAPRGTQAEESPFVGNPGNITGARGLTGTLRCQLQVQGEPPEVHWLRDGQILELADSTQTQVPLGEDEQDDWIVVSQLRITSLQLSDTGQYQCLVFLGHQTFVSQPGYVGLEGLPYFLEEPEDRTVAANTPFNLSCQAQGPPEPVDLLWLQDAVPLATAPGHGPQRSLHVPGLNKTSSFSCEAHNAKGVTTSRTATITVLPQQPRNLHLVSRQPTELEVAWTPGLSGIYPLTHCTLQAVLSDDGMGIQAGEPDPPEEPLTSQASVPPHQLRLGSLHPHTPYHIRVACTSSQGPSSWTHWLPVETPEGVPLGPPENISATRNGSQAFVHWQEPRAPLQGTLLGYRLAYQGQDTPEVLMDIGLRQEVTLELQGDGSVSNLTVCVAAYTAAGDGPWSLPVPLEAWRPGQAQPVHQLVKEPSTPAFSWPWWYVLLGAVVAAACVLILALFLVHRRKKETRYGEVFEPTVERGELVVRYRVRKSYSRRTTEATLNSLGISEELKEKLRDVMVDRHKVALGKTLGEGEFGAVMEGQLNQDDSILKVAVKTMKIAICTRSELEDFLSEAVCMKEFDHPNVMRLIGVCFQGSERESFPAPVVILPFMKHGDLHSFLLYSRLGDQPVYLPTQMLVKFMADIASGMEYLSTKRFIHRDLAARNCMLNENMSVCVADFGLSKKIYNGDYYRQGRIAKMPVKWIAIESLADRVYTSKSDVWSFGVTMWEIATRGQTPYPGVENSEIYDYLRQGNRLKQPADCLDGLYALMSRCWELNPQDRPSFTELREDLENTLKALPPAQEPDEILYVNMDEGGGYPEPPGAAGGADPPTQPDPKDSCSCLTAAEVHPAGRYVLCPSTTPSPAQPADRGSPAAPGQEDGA
# Sequence of CAMK1G (human) (Q96NX5 whole entry, looked up): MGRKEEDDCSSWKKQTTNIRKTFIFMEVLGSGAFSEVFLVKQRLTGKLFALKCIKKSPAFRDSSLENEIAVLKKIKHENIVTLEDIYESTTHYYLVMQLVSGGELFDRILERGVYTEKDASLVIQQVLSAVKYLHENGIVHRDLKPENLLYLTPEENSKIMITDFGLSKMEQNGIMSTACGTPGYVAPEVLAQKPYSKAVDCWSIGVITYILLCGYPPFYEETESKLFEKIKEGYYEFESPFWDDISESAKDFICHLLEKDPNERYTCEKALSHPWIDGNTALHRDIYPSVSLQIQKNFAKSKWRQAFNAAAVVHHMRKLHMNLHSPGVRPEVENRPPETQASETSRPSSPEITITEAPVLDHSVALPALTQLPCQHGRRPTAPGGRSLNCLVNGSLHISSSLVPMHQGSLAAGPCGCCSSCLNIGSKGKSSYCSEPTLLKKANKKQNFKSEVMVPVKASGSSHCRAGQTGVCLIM
# Sequence of TXK (human) (P42681 whole entry, looked up): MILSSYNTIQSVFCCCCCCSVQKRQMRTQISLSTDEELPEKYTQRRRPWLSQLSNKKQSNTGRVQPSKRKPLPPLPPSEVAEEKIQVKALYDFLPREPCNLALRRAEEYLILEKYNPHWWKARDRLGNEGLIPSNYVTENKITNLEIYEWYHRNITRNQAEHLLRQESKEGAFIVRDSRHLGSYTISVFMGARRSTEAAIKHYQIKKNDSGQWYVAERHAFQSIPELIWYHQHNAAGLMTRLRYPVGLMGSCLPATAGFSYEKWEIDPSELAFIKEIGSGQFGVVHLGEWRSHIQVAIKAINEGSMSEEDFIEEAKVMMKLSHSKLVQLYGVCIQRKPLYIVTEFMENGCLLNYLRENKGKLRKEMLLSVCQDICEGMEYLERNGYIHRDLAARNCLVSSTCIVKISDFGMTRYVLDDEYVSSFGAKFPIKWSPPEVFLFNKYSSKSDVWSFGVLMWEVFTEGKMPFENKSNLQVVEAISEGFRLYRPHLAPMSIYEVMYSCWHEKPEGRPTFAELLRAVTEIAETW
# Sequence of FES (human) (P07332 whole entry, looked up): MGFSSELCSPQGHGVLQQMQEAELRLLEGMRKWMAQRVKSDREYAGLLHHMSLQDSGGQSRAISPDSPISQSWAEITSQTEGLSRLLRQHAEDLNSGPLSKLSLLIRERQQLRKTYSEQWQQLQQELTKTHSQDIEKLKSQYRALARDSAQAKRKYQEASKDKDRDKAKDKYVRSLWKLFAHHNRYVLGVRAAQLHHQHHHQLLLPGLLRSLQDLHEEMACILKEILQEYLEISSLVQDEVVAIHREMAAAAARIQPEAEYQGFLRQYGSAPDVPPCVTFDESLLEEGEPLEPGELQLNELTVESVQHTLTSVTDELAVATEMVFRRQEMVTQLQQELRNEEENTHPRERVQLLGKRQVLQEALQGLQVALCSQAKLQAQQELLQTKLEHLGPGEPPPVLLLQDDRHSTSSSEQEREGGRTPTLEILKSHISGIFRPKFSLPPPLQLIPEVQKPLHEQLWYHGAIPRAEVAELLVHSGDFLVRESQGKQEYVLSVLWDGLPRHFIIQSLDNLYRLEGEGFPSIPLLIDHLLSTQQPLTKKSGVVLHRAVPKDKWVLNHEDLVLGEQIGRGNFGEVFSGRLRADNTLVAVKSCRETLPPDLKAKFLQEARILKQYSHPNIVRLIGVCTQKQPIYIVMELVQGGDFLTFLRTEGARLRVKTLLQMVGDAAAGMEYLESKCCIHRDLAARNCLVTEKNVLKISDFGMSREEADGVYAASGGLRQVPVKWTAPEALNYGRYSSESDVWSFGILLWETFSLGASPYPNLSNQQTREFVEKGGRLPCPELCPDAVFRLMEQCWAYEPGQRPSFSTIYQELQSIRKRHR
# Sequence of TTK (human) (P33981 whole entry, looked up): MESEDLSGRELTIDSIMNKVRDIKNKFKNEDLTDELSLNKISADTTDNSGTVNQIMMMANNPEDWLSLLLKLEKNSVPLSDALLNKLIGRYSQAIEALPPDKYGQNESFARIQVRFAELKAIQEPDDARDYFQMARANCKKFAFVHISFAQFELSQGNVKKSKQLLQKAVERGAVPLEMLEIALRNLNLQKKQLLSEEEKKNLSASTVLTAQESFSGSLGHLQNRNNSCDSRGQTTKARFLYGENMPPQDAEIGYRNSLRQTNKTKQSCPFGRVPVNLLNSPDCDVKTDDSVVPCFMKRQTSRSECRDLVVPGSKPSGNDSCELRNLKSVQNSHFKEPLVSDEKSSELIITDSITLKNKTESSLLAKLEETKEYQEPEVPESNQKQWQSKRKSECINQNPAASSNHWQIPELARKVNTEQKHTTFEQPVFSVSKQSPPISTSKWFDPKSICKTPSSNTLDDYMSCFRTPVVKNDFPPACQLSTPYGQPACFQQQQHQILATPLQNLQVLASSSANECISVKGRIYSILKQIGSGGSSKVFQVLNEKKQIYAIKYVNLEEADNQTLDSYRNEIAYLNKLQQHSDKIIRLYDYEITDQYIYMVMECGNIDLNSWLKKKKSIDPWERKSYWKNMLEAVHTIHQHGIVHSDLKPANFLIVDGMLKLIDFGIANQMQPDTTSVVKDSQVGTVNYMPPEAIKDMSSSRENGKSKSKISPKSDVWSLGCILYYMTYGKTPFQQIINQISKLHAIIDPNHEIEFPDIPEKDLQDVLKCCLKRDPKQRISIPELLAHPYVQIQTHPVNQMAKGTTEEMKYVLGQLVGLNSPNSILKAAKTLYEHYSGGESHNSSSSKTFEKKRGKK
# Sequence of EPHB4 (human) (P54760 whole entry, looked up): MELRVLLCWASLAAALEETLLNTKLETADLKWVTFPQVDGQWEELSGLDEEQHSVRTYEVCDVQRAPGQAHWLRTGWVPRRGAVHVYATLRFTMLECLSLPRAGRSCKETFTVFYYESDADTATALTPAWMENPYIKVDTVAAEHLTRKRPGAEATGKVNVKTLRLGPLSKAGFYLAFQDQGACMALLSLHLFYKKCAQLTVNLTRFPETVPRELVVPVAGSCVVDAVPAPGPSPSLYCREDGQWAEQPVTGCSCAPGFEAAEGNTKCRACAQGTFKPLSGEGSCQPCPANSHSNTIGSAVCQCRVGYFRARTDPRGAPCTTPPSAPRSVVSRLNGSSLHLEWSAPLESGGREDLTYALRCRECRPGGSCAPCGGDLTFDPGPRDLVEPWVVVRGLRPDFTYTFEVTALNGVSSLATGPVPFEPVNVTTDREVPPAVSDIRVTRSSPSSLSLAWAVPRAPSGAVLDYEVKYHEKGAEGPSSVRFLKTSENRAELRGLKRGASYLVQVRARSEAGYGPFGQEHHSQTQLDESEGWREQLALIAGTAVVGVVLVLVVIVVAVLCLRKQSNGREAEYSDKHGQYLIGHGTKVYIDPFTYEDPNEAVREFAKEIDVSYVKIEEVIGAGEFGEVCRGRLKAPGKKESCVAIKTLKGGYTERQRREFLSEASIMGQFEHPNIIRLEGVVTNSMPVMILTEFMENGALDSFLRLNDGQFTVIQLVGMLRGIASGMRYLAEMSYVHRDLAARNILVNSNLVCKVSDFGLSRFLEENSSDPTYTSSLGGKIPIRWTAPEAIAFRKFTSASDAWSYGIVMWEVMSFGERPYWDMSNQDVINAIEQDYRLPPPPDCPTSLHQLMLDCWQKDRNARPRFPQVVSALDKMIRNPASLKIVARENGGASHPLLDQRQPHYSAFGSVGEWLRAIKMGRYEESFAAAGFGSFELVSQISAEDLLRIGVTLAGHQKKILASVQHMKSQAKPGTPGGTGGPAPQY
smiles,measurement,setting,value
COc1ccc2c(c1)c(C1=C(c3c[nH]c4ccccc34)C(=O)NC1=O)cn2CCCN(C)C,residual activity,PRKCB1 (human),19.3%
same,residual activity,MAPK12 (human),84.8%
same,residual activity,TXK (human),82.8%
same,residual activity,CSNK1G3 (human),77.8%
same,residual activity,FGFR1 (human),59%
same,residual activity,NUAK1 (human),32.2%
same,residual activity,FES (human),120%
same,residual activity,EPHB4 (human),94.2%
same,residual activity,AKT2 (human),110%
same,residual activity,AURKA (human),86.6%
same,residual activity,STK16 (human),93.1%
same,residual activity,DAPK2 (human),81.1%
same,residual activity,NEK6 (human),101%
same,residual activity,NTRK3 (human),54.9%
same,residual activity,PRKCZ (human),78.2%
same,residual activity,AURKB (human),88.5%
same,residual activity,MARK2 (human),91.8%
same,residual activity,NEK3 (human),98.3%
same,residual activity,CAMKK1 (human),94.8%
same,residual activity,TTK (human),89.9%
same,residual activity,MAP4K4 (human),37.8%
same,residual activity,PIM2 (human),90.5%
same,residual activity,AXL (human),98.7%
same,residual activity,AKT1 (human),99%
same,residual activity,TAOK1 (human),99.5%
same,residual activity,DMPK (human),97.7%
same,residual activity,STK4 (human),65.2%
same,residual activity,PTK6 (human),92%
same,residual activity,INSR (human),94.1%
same,residual activity,MAPKAPK5 (human),98.1%
same,residual activity,MAPKAPK2 (human),99.7%
same,residual activity,DYRK1B (human),80%
same,residual activity,STK3 (human),72.2%
same,residual activity,FGR (human),107%
same,residual activity,MAP3K3 (human),82.8%
same,residual activity,CAMK1G (human),95%
same,residual activity,CSNK1G2 (human),82.2%
same,residual activity,LCK (human),93.6%
same,residual activity,CDK7 CCNH MNAT1 (human),88%
same,residual activity,EPHA3 (human),94.1%
same,residual activity,IRAK4 (human),91.2%
same,residual activity,DYRK2 (human),92.4%
